Reference: PMC3199867, “Targeting surface nucleolin with multivalent HB-19 and related Nucant pseudopeptides results in distinct inhibitory mechanisms depending on the malignant tumor cell type” (BMC Cancer, 2011)

Experiments:
Assay in all cases: mRNA expression by RT-PCR in SW620 cells
Assay type in all cases: cell-based, human
MMP-9 = conditions: SW620, 10 μM, 24 hours post-seeding
Protocol: (§1) SW620 cells were cultured in the absence or presence of N7 before extraction for total RNA using RNeasy Mini Kit (Qiagen) according to the manufacturer's instructions. RT was carried out with oligo(dT) and 2-4 μg of total RNA using Superscript II Reverse Transcriptase (Invitrogen). PCR was performed in a RoboCycler 96 (Stratagene, La Jolla, CA, USA) with specific primers for human nucleolin (referred to as NCL) 5'-[…]-3' and 5'-[…]-3' (835 bp); glyceraldehyde-3-phosphate dehydrogenase (GAPDH) 5'-TGAAGG-[…]-3' and 5'-[…]-CCAC-3' (983 bp); nucleophosmin (NPM or B23) 5'-[…]-3' and 5'-[…]-3' (320 bp); matrix metalloproteinase-2 (MMP-2) 5'-[…]-3' and 5'-[…]-3' (580 bp); matrix metalloproteinase-9 (MMP-9) 5'-[…] TCAGAGC-3' and 5'-[…]-3' (243 bp); tissue inhibitor of metalloproteinase 1 (TIMP-1) 5'-[…]-3' and 5'-[…]-3' (667 bp); tissue inhibitor of metalloproteinase 2 (TIMP-2) 5'-[…]-3' and 5'-[…]-3' (405 bp). PCR amplification conditions were: 95°C for 5 min, 30 cycles at 95°C for 30 sec, 60°C for 30 sec and 72°C for 45 sec, and 72°C for 5 min (for NCL and GAPDH), 95°C for 5 min, 30 cycles at 95°C for 30 sec, 53°C for 30 sec and 72°C for 30 sec, and 72°C for 5 min (for NPM); 95°C for 5 min, 35 cycles at 95°C for 45 sec, 56°C for 45 sec and 72°C for 45 sec, and 72°C for 5 min (for MMP2 and MMP9); 95°C for 5 min, 30 cycles at 95°C for 45 sec, 59°C for 1 min and 72°C for 1 min 30 sec, and 72°C for 5 min (for TIMP1 and TIMP2).
(§2) Figure 6 Selective down regulation of MMP-9 and nucleolin transcripts in Nucant treated SW620 cells. A. SW620 cells in the absence (lanes -) and presence (lanes +) of 10 μM of N7 were cultured for 24, 48, and 72 hours. B. Dose dependent reduction of MMP-9 and nucleolin transcripts in response to Nucant treatment. Newly seeded SW620 cells were cultured in the absence (lanes 1) and presence of 2.5 (lanes 2), 5 (lanes 3) and 10 (lanes 4) […] of N6 for 20 hours. Total RNA extracts were prepared at different time points and the expression of various transcripts was analyzed by RT-PCR using specific primers (Methods). […]

nucleolin = conditions: SW620, 10 μM, 24, 48 and 72 hours
Protocol: as §1, §2

nucleophosmin = conditions: SW620, 10 μM, 24, 48 and 72 hours
Protocol: as §1, §2

Ac-KAKPGKAKPGKAKPG-NH2 [Nucant N7, Presents hexavalently the pseudo-tripeptide Lysψ(CH2N)-Pro-Arg coupled to a similar template as in HB-19]
expression of MMP-9 transcripts (MMP-9): completely abolished | transcripts coding nucleolin (nucleolin): marked down regulation | expression of transcripts coding nucleophosmin (nucleophosmin): not affected
